Test results as given in US8519128B2, “Pyripyropene derivatives having an ACAT2-inhibiting activity” (The Kitasato Institute, priority 2007, dated 2013).
Like-named read-outs stand apart in the source and are kept apart here.

How the values were obtained:
ACAT 2 = biological target: T1, ACAT 2 (Mus musculus, UniProt O88908); experiment: ACAT-inhibiting activity, mouse liver microsome membrane fraction, [14C]oleoyl-CoA; format: biochemical; details: for Specific activity: (inhibitory activity of test compound)/(inhibitory activity of pyripyropene A): relative to pyripyropene A
T1 construct: The source of ACAT 2 enzyme used was a membrane fraction derived from mouse liver microsome; from tissue; host or cells: mouse liver (microsome fraction)
T1 sequence (O88908 1-525): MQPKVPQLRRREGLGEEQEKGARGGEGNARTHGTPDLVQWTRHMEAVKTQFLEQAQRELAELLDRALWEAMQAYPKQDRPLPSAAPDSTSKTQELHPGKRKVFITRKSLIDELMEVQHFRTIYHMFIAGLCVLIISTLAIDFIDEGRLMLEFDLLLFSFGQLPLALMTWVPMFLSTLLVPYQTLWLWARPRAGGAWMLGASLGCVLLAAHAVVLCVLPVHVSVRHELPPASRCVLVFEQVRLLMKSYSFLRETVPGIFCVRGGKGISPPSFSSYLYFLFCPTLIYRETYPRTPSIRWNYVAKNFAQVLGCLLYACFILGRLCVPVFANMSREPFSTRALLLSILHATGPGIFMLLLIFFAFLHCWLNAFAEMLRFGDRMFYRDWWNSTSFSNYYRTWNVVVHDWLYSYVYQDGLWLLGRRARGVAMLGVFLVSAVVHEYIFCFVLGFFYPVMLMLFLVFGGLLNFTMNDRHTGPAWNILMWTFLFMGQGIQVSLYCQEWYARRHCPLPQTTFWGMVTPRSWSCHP
Procedure, shortened: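 Enzyme source: mouse liver microsomal membrane fraction (100000×g pellet) at 5 mg/ml protein in 50 mM Tris-HCl pH 7.8, 1 mM EDTA, 1 mM PMSF; substrate [14C]oleoyl-CoA. Chloroform-extracted lipids resolved by silica TLC in hexane/diethyl ether/acetic acid (70:30:1).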

[1] = system: apolipoprotein E-deficient mice; experiment: Total plasma cholesterol after 14 days of daily oral administration, high-fat feed; format: in vivo; details: for total plasma cholesterol at day 14 (% of day 0): day 0 taken as 100%, control 212.2%
Description: Ten-week old apolipoprotein E-deficient mice (males, purchased from Jackson Laboratories) were kept under cycles of artificial light (day) for 12 hours and dark (night) for 12 hours by appropriately feeding a standard high-fat feed (D12079B, Research Diet). Before starting a test for each test compound, 100 μL of blood were collected from the caudal vein of each animal to measure the total cholesterol concentration in plasma using a commercially available kit (Determiner TC 555, Kyowa Medex). […] The test compound was orally administered daily at the start of the artificial light cycle of each day.
Blood was collected at the start of the artificial light cycle on day 14 of administration of the test compound to measure the total plasma cholesterol. The total plasma cholesterol before administration of the test compound (on day 0) was taken as 100%, and the percent increase in total plasma cholesterol on day 14 after administration of the test compound started was calculated.

[2] = mouse liver microsome, 5 minutes at 37° C.

SMILES | IC50 (ACAT 2; [2]) [nM] | Specific activity: (inhibitory activity of test compound)/(inhibitory activity of pyripyropene A) (ACAT 2) | also measured
CC(=O)OCC1(C)C2C[C@H](OC(=O)c3ccc(C#N)cc3)[C@@]3(C)Oc4cc(-c5cccnc5)oc(=O)c4[C@H](O)C3[C@@]2(C)CC[C@@H]1OC(C)=O (some centres unmarked) [PRD 017, 7-p-cyanobenzoyl-7-deacetylpyripyropene A] | 10 to 100 | +++ (50 > specific activity > 10) | total plasma cholesterol at day 14 (% of day 0) ([1]; 1 mg/kg oral daily): 161.6%; total plasma cholesterol at day 14 (% of day 0) ([1]; 10 mg/kg oral daily): 149.7%; total plasma cholesterol at day 14 (% of day 0) ([1]; 50 mg/kg oral daily): 132.5%; suppression of the increase in total plasma cholesterol compared with pyripyropene A ([1]; oral administration, apolipoprotein E-deficient mice): to a greater degree than did pyripyropene A
COc1ccc(CCC(=O)O[C@H]2CC3C(C)(COC(C)=O)[C@@H](OC(C)=O)CC[C@]3(C)C3[C@@H](O)c4c(cc(-c5cccnc5)oc4=O)O[C@@]32C)cc1 (some centres unmarked) [PRD 084, 7-O-3-(4-methoxyphenyl)propionyl-7-deacetylpyripyropene A] | 10 to 100 | +++ (50 > specific activity > 10) | 
CC(=O)OCC1(C)C2C[C@H](OC(=O)C3CCC(C)CC3)[C@@]3(C)Oc4cc(-c5cccnc5)oc(=O)c4[C@H](O)C3[C@@]2(C)CC[C@@H]1OC(C)=O (stereo partly drawn) [PRD 085, 7-O-4-trans-methylcyclohexanecarboxyl-7-deacetylpyripyropene A] | 10 to 100 | + (5 > specific activity > 1) | 
COc1ccc(CC(=O)O[C@H]2CC3C(C)(COC(C)=O)[C@@H](OC(C)=O)CC[C@]3(C)C3[C@@H](O)c4c(cc(-c5cccnc5)oc4=O)O[C@@]32C)cc1 (some centres unmarked) [PRD 087, 7-O-4-methoxyphenylacetyl-7-deacetylpyripyropene A] | 100 to 1000 | + (5 > specific activity > 1) | 
CC(=O)OCC1(C)C2C[C@H](OC(=O)Cn3cc(C)c(=O)[nH]c3=O)[C@@]3(C)Oc4cc(-c5cccnc5)oc(=O)c4[C@H](O)C3[C@@]2(C)CC[C@@H]1OC(C)=O (some centres unmarked) [PRD 090, 7-O-1-thymineacetyl-7-deacetylpyripyropene A] | 100 to 1000 | + (5 > specific activity > 1) | 
CC(=O)OCC1(C)C2C[C@H](OC(=O)Cn3cnnn3)[C@@]3(C)Oc4cc(-c5cccnc5)oc(=O)c4[C@H](O)C3[C@@]2(C)CC[C@@H]1OC(C)=O (some centres unmarked) [PRD 092, 7-O-2-(1H-tetrazol-1-yl)acetyl-7-deacetylpyripyropene A] |  | + (5 > specific activity > 1) | IC50 (ACAT 2): 100 to 1000 nM
CC(=O)OCC1(C)C2C[C@H](OC(=O)CCCCO)[C@@]3(C)Oc4cc(-c5cccnc5)oc(=O)c4[C@H](O)C3[C@@]2(C)CC[C@@H]1OC(C)=O (some centres unmarked) [PRD 093, 7-O-5-hydroxypentanoyl-7-deacetylpyripyropene A] | 100 to 1000 | + (5 > specific activity > 1) | 
CC(=O)OCC1(C)C2C[C@H](OC(=O)CCN3CCCCC3)[C@@]3(C)Oc4cc(-c5cccnc5)oc(=O)c4[C@H](O)C3[C@@]2(C)CC[C@@H]1OC(C)=O (some centres unmarked) [PRD 095, 7-O-3-(pyperidin-1-yl)propionyl-7-deacetylpyripyropene A] | 100 to 1000 | + (5 > specific activity > 1) | 
CC(=O)OCC1(C)C2C[C@H](OC(=O)c3cnccn3)[C@@]3(C)Oc4cc(-c5cccnc5)oc(=O)c4[C@H](O)C3[C@@]2(C)CC[C@@H]1OC(C)=O (some centres unmarked) [PRD 096, 7-O-pyrazinecarboxyl-7-deacetylpyripyropene A] | 100 to 1000 | + (5 > specific activity > 1) | 
CC(=O)OCC1(C)C2C[C@H](OC(=O)c3ccc(=O)oc3)[C@@]3(C)Oc4cc(-c5cccnc5)oc(=O)c4[C@H](O)C3[C@@]2(C)CC[C@@H]1OC(C)=O (some centres unmarked) [PRD 098, 7-O-2-pyrone-5-carboxyl-7-deacetylpyripyropene A] | 100 to 1000 | + (5 > specific activity > 1) | 
CC(=O)OCC1(C)C2C[C@H](OC(=O)CCc3ccccc3)[C@@]3(C)Oc4cc(-c5cccnc5)oc(=O)c4[C@H](O)C3[C@@]2(C)CC[C@@H]1OC(C)=O (some centres unmarked) [PRD 100, 7-O-3-phenylpropionyl-7-deacetylpyripyropene A] | < 10 | +++ (50 > specific activity > 10) | 
CC(=O)OCC1(C)C2C[C@H](OC(=O)Cc3nnn[nH]3)[C@@]3(C)Oc4cc(-c5cccnc5)oc(=O)c4[C@H](O)C3[C@@]2(C)CC[C@@H]1OC(C)=O (some centres unmarked) [PRD 102, 7-O-(1H-tetrazol-5-yl)acetyl-7-deacetylpyripyropene A] | 100 to 1000 | + (5 > specific activity > 1) | 
COc1ccc(CCCC(=O)O[C@H]2CC3C(C)(COC(C)=O)[C@@H](OC(C)=O)CC[C@]3(C)C3[C@@H](O)c4c(cc(-c5cccnc5)oc4=O)O[C@@]32C)cc1 (some centres unmarked) [PRD 103, 7-O-4-(4-methoxyphenyl)butytyl-7-deacetylpyripyropene A] | < 10 | +++ (50 > specific activity > 10) | 
CC(=O)OCC1(C)C2C[C@H](OC(=O)CCN3CCN(C)CC3)[C@@]3(C)Oc4cc(-c5cccnc5)oc(=O)c4[C@H](O)C3[C@@]2(C)CC[C@@H]1OC(C)=O (some centres unmarked) [PRD 104, 7-O-3-(4-methylpiperazin-1-yl)propionyl-7-deacetylpyripyropene A] | 100 to 1000 | + (5 > specific activity > 1) | 
CC(=O)OCC1(C)C2C[C@H](OC(=O)c3ccc(Br)c(F)c3)[C@@]3(C)Oc4cc(-c5cccnc5)oc(=O)c4[C@H](O)C3[C@@]2(C)CC[C@@H]1OC(C)=O (some centres unmarked) [PRD 105, 7-O-p-bromo-m-fluorobenzoyl-7-deacetylpyripyropene A] | < 10 | +++ (50 > specific activity > 10) | 
COCOCC(=O)O[C@H]1CC2C(C)(COC(C)=O)[C@@H](OC(C)=O)CC[C@]2(C)C2[C@@H](O)c3c(cc(-c4cccnc4)oc3=O)O[C@@]21C (some centres unmarked) [PRD 106, 7-O-methoxymethoxyacetyl-7-deacetylpyripyropene A] |  | + (5 > specific activity > 1) | IC50 (ACAT 2): 100 to 1000 nM
CC(=O)OCC1(C)C2C[C@H](OC(=O)CO)[C@@]3(C)Oc4cc(-c5cccnc5)oc(=O)c4[C@H](O)C3[C@@]2(C)CC[C@@H]1OC(C)=O (some centres unmarked) [PRD 107, 7-O-hydroxyacetyl-7-deacetylpyripyropene A] | 100 to 1000 | + (5 > specific activity > 1) | 
COCCOCOCC(=O)O[C@H]1CC2C(C)(COC(C)=O)[C@@H](OC(C)=O)CC[C@]2(C)C2[C@@H](O)c3c(cc(-c4cccnc4)oc3=O)O[C@@]21C (some centres unmarked) [PRD 108, 7-O-methoxyethoxymethoxyacetyl-7-deacetylpyripyropene A] | 100 to 1000 | + (5 > specific activity > 1) | 
CC(=O)OCC1(C)C2C[C@H](OC(=O)c3ccc(Br)cc3F)[C@@]3(C)Oc4cc(-c5cccnc5)oc(=O)c4[C@H](O)C3[C@@]2(C)CC[C@@H]1OC(C)=O (some centres unmarked) [PRD 109, 7-O-p-bromo-o-fluorobenzoyl-7-deacetylpyripyropene A] | < 10 | +++ (50 > specific activity > 10) | 
CC(=O)OCC1(C)C(OC(C)=O)CC[C@@]2(C)C1C[C@H](OC(=O)c1ccc(C(N)=O)cc1)[C@@]1(C)Oc3cc(-c4cccnc4)oc(=O)c3[C@H](O)C21 (some centres unmarked) [PRD 111] | 100 to 1000 | + (5 > specific activity > 1) | 
CC(=O)OCC1(C)C2C[C@H](OC(=O)c3ccc(C#N)c(F)c3)[C@@]3(C)Oc4cc(-c5cccnc5)oc(=O)c4[C@H](O)C3[C@@]2(C)CC[C@@H]1OC(C)=O (some centres unmarked) [PRD 112, 7-O-p-cyano-m-fluorobenzoyl-7-deacetylpyripyropene A] |  | +++ (50 > specific activity > 10) | 
CC(=O)OCC1(C)C(OC(C)=O)CCC2(C)C1CC(OC(C)=O)C1(C)Oc3cc(-c4cccnc4)oc(=O)c3C(O)C21 (centres unmarked) [Pyripyropene A, reference compound] |  |  | total plasma cholesterol at day 14 (% of day 0) ([1]; 10 mg/kg oral daily): 177.3%; total plasma cholesterol at day 14 (% of day 0) ([1]; 50 mg/kg oral daily): 174.0%
